Experimental data reported in PubChem BioAssay (NCI).
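These data come from cells grown in 96-well plates and exposed to compound for 48 hours at five concentrations. GI50 marks 50% less growth. Definition used: TGI = concentration required for complete inhibition of growth.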

Legend:
Assay in all cases: inhibition of tumour cell growth, NCI panel, 48 h
[1] = test system: 786-0 renal
[2] = test system: SK-MEL-5 melanoma
[3] = test system: OVCAR-4 ovarian
[4] = test system: COLO 205 colon
[5] = test system: A549 NSCLC
[6] = test system: MDA-MB-231 breast
[7] = test system: SF-295 CNS
[8] = test system: MDA-MB-435
[9] = test system: SN12C renal
[10] = test system: MALME-3M melanoma
[11] = test system: T-47D breast
[12] = test system: TK-10 renal
[13] = test system: CAKI-1 renal
[14] = test system: U251 CNS
[15] = test system: OVCAR-3 ovarian
[16] = test system: LOX IMVI melanoma
[17] = test system: OVCAR-8 ovarian
[18] = test system: SF-539 CNS
[19] = test system: HCT-15 colon
[20] = test system: EKVX NSCLC
[21] = test system: SK-OV-3 ovarian
[22] = test system: KM12 colon
[23] = test system: HS 578T breast
[24] = test system: OVCAR-5 ovarian
[25] = test system: HL-60(TB) leukemia
[26] = test system: UACC-257 melanoma
[27] = test system: A498 renal
[28] = test system: NCI/ADR-RES ovarian
[29] = test system: SW-620 colon
[30] = test system: HCC-2998 colon
[31] = test system: HCT-116 colon
[32] = test system: NCI-H226 lung
[33] = test system: SK-MEL-2 melanoma
[34] = test system: NCI-H460 lung
[35] = test system: PC-3 prostate
[36] = test system: SK-MEL-28 melanoma
[37] = test system: CCRF-CEM leukemia
[38] = test system: MCF7 breast
[39] = test system: SNB-75 CNS
[40] = test system: UACC-62 melanoma
[41] = test system: BT-549 breast
[42] = test system: IGROV1 ovarian
[43] = test system: MOLT-4 leukemia
[44] = test system: NCI-H522 lung
[45] = test system: UO-31 renal
[46] = test system: SF-268 CNS
[47] = test system: HOP-92 NSCLC
[48] = test system: SNB-19 CNS
[49] = test system: HT29 colon
[50] = test system: RXF 393 renal
[51] = test system: ACHN renal
[52] = test system: DU-145 prostate
[53] = test system: HOP-62 NSCLC

Nc1nc(Cl)c2ncn(Cc3ccc(C45CC6CC(CC(C6)C4)C5)c(OCc4cc(F)c(F)cc4F)c3)c2n1
GI50 [1]: 1.85 µM | TGI [1]: 4.93 µM | GI50 [2]: 0.392 µM | TGI [2]: 2.24 µM | GI50 [3]: 6.08 µM | TGI [3]: > 100 µM | GI50 [4]: 4.22 µM | TGI [4]: 22 µM | GI50 [5]: 1.94 µM | TGI [5]: 5.89 µM | GI50 [6]: 2.58 µM | TGI [6]: 9.81 µM | GI50 [7]: 3.44 µM | TGI [7]: 17.1 µM | GI50 [8]: 2.98 µM | TGI [8]: 17.6 µM | GI50 [9]: 3.05 µM | TGI [9]: 11.3 µM | GI50 [10]: 2.47 µM | TGI [10]: 8.62 µM | GI50 [11]: 6.75 µM | TGI [11]: 44.8 µM | GI50 [12]: 2.88 µM | TGI [12]: 10.3 µM | GI50 [13]: 2.37 µM | TGI [13]: 5.48 µM | GI50 [14]: 3.04 µM | TGI [14]: 16.3 µM | GI50 [15]: 2.09 µM | TGI [15]: 14.7 µM | GI50 [16]: 1.88 µM | TGI [16]: 8.64 µM | GI50 [17]: 2.94 µM | TGI [17]: 14.2 µM | GI50 [18]: 4.18 µM | TGI [18]: 14.8 µM | GI50 [19]: 3.57 µM | TGI [19]: 14.1 µM | GI50 [20]: 10.8 µM | TGI [20]: 67.1 µM | GI50 [21]: 6.02 µM | TGI [21]: 42.2 µM | GI50 [22]: 2.93 µM | TGI [22]: 9.13 µM | GI50 [23]: 12.1 µM | TGI [23]: 71.3 µM | GI50 [24]: 13.4 µM | TGI [24]: 33.9 µM | GI50 [25]: 1.06 µM | TGI [25]: 2.85 µM | GI50 [26]: 0.494 µM | TGI [26]: 3.97 µM | GI50 [27]: 8.78 µM | TGI [27]: 22.8 µM | GI50 [28]: 3.5 µM | TGI [28]: 13.8 µM | GI50 [29]: 2.14 µM | TGI [29]: 20.5 µM | GI50 [30]: 2.48 µM | TGI [30]: 5.58 µM | GI50 [31]: 1.03 µM | TGI [31]: 2.2 µM | GI50 [32]: 5.69 µM | TGI [32]: 21.9 µM | GI50 [33]: 5.84 µM | TGI [33]: 20.4 µM | GI50 [34]: 2.39 µM | TGI [34]: 5.89 µM | GI50 [35]: 1 µM | TGI [35]: 3.98 µM | GI50 [36]: 8.12 µM | TGI [36]: 26.3 µM | GI50 [37]: 1.66 µM | TGI [37]: 4.16 µM | GI50 [38]: 3.12 µM | TGI [38]: 16.3 µM | GI50 [39]: 27.5 µM | TGI [39]: > 100 µM | GI50 [40]: 1.64 µM | TGI [40]: 12.6 µM | GI50 [41]: 3.86 µM | TGI [41]: 13 µM | GI50 [42]: 2.77 µM | TGI [42]: 13.8 µM | GI50 [43]: 0.837 µM | TGI [43]: 2.71 µM | GI50 [44]: 2.8 µM | TGI [44]: 12.3 µM | GI50 [45]: 4.54 µM | TGI [45]: 19.4 µM | GI50 [46]: 3.01 µM | TGI [46]: 15.2 µM | GI50 [47]: 2.02 µM | TGI [47]: 6.03 µM | GI50 [48]: 6.48 µM | TGI [48]: 46.6 µM | GI50 [49]: 3.45 µM | TGI [49]: 22.7 µM | GI50 [50]: 0.677 µM | TGI [50]: 2.66 µM | GI50 [51]: 3.4 µM | TGI [51]: 13.7 µM | GI50 [52]: 4.08 µM | TGI [52]: 15.7 µM | GI50 [53]: 3.23 µM | TGI [53]: 10.8 µM
